Measured values from US20230183243A1, “HETEROARYL DERIVATIVES AND PHARMACEUTICAL COMPOSITION COMPRISING SAME AS ACTIVE INGREDIENT” (VORONOI INC., priority 2019, published 2023).
Read-outs that look alike come from different tables or passages of the source.

How the values were obtained:
A549 = assay: Cell proliferation inhibition, carcinomas other than TNBC; type: cell-based
Method: (§1) To check an ability to inhibit the growth of (MDA-MB-231) cells in two triple-negative breast cancer cell lines, a test was performed, as follows. Cells were seeded in 180 μL of a culture broth at a density of 2,000 to 3,000 cells/well in a white clear bottom 96-well plate (Corning) according to the growth ability of each cell, and then cultured for 24 hours under conditions of 5% CO2 and 37° C. Thereafter, the compound was prepared by diluting a 10 mM stock solution three-fold with 100% DMSO at a total of 12 concentrations so that a peak concentration of the compound was in a range of 10 mM to 0.05 μM, and the diluted compound was then diluted in each cell culture medium so that a final concentration of the compound was in a range of 100 μM to 0.5 nM. 20 μL of a diluted solution diluted with a medium was added to the cell solution in which cells were seeded in the 96-well plate on the previous day so that a final concentration of the diluted solution was in a range of 10 μM to 0.05 nM. Each of the cells was cultured for 5 days. To check cell viability, a mixture provided in a CellTiter-Glo® Luminescent Cell Viability Assay Kit (Promega) was added to each of the cultured cell media, and cultured for another 10 minutes under a condition of 37° C. Then, a degree of luminescence (fluorescence) was measured. A degree of inhibition of the cell growth according to the treatment concentration of each of the compounds was calculated based on the fluorescence of the solvent control cells which were not treated with the compound. In this case, the concentration of each of the compounds inhibiting 50% of the cell growth was determined to be a GI50 (nM) value, and calculated using Prism (Version 7.01; GraphPad) software.
(§2) Next, the activities of the Example compounds against various types of carcinomas other than the TNBC were evaluated in a similar manner as described above. In the following table, the following active value range (GI50 (nM)) was used to evaluate cell proliferation inhibitory activity.

BxPC3 = assay: as above; type: cell-based
Method: as §1, §2

DU145 = assay: as above; type: cell-based
Method: as §1, §2

HCT116 = assay: as above; type: cell-based
Method: as §1, §2

MDA-MB-231 cells = assay: Inhibition of proliferation of triple-negative breast cancer cells, CellTiter-Glo; type: cell-based; conditions: Homo sapiens, 120 h; MDA-MB-231, cultured for 5 days
Outline: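 MDA-MB-231 cells pre-cultured 24 h (5% CO2, 37 °C), then exposed to compound for 5 days at 12 three-fold dilutions, final 10 μM to 0.05 nM. Viability read by CellTiter-Glo luminescence after 10 min at 37 °C; growth inhibition calculated relative to untreated solvent-control cells.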

TTK = target: T1, TTK (Homo sapiens, UniProt P33981); assay: TTK enzyme activity, ADP-Glo kinase assay; type: biochemical; set-up: purchased SignalChem T20-10G; conditions: purified human TTK, ATP 10 μM, 25° C., 2 hours
T1 sequence (P33981 1-857): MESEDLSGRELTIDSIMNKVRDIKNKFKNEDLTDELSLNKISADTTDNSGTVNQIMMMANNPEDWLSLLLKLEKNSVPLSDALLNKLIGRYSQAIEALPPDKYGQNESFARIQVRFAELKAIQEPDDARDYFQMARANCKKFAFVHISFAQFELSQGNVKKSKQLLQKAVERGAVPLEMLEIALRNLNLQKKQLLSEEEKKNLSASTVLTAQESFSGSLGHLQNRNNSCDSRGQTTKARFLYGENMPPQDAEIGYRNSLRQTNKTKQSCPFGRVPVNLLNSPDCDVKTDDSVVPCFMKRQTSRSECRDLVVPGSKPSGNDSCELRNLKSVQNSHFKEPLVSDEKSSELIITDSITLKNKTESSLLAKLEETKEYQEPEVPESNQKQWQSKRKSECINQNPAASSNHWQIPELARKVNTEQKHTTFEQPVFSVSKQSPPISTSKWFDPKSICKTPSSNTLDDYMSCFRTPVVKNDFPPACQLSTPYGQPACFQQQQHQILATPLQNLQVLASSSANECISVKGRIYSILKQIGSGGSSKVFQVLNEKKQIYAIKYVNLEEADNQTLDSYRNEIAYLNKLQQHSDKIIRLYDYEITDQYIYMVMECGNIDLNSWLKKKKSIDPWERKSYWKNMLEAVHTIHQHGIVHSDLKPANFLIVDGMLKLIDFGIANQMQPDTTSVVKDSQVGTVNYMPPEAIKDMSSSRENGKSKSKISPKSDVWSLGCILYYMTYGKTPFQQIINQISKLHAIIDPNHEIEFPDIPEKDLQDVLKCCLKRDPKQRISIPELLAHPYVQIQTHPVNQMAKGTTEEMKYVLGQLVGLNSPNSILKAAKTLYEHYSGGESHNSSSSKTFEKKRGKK
Outline: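 ADP-Glo read-out; percent inhibition at each compound concentration was relative to the solvent-only control. The reactions contained 25 ng enzyme, 0.2 μg substrate and 10 μM ATP in 40 mM Tris-HCl pH 7.4 with 20 mM MgCl2, 0.5 mg/mL BSA and 50 μM DTT, and ran 2 h at 25 °C.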

SHP-77 = assay: Inhibition of proliferation of small cell lung cancer cells, CellTiter-Glo; type: cell-based; conditions: Homo sapiens, SHP77, 120 h; SHP-77, cultured for 5 days
Outline: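 SHP-77 cells at 2,000–3,000 cells/well, cultured 24 h at 37° C, 5% CO2, then given 12 threefold compound dilutions, final 10 μM to 0.05 nM, for 5 days. Viability by CellTiter-Glo luminescence relative to solvent control. GI50 from concentration–response.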

SMILES | GI50 (A549) | GI50 (BxPC3; BxPC3) | GI50 (DU145; DU145) | GI50 (HCT116; HCT116) | GI50 (MDA-MB-231 cells) | GI50 (A549; Homo sapiens) | GI50 (BxPC3; Homo sapiens, BXPC-3) | GI50 (DU145; Homo sapiens, DU-145) | GI50 (HCT116; Homo sapiens, HCT-116) | IC50 (TTK) | GI50 (SHP-77)
COc1cc(N2CCCC2=O)ccc1Nc1nc(NC2CCCCC2)c2cc[nH]c2n1 [Example 48] | < 100 nM | < 100 nM | < 100 nM | < 100 nM | – | – | – | – | – | – | –
COc1cc(N2CCCC2=O)ccc1Nc1nc(NC2CCCC2)c2c(C#N)c[nH]c2n1 [Example 55, 4-(cyclopentylamino)-2-((2-methoxy-4-(2-oxopyrrolidin-1-yl)phenyl)amino)-7H-pyrrolo[2,3-d] pyrimidine-5-carbonitrile] | – | – | – | – | < 100 nM | < 100 nM | < 100 nM | < 100 nM | < 100 nM | < 50 nM | –
COc1cc(N2CCCC2=O)ccc1Nc1nc(NC2CCCCC2)c2c(C(F)(F)F)c[nH]c2n1 [Example 53, 1-(4-((4-(cyclohexylamino)-5-(trifluoromethy1)-7H-pyrrolo[2,3-d]pyrimidin-2-yl)amino)-3-methoxyphenyl) pyrrolidin-2-one] | – | – | – | – | 100 to 1000 nM | 100 to 1000 nM | 100 to 1000 nM | 100 to 1000 nM | 100 to 1000 nM | < 50 nM | –
COc1cc(N2CCCC2=O)ccc1Nc1nc(NC2CCCCC2)c2c(C#N)c[nH]c2n1 [Example 56, 4-(cyclohexylamino)-2-((2-methoxy-4-(2-oxopyrrolidin-1-yl)phenyl)amino)-7H-pyrrolo[2,3-d] pyrimidine-5-carbonitrile] | – | – | – | – | < 100 nM | < 100 nM | < 100 nM | < 100 nM | < 100 nM | < 50 nM | < 100 nM
COc1cc(N2CCCC2=O)ccc1Nc1nc(NC2CCCC2)c2c(C(F)(F)F)c[nH]c2n1 [Example 52] | – | – | – | – | – | 100 to 1000 nM | 100 to 1000 nM | 100 to 1000 nM | 100 to 1000 nM | – | –
CNc1nc(Nc2ccc(N3CCCC3=O)cc2OC)nc2[nH]cc(C#N)c12 [Example 54, 2-((2-methoxy-4-(2-oxopyrrolidin-1-yl)phenyl)amino)-4-(methylamino)-7H-pyrrolo[2,3-d] pyrimidine-5-carbonitrile] | – | – | – | – | 100 to 1000 nM | 100 to 1000 nM | 100 to 1000 nM | 100 to 1000 nM | 100 to 1000 nM | 50 to 200 nM | –
COc1cc(-c2nncn2C)ccc1Nc1nc(NC2CCOC(C)(C)C2)c2c(C#N)c[nH]c2n1 (centres unmarked) [Example 143, 4-((2,2-dimethyltetrahydro-2H-pyran-4-yl)amino)-2-((2-methoxy-4-(4-methyl-4H-1,2,4-triazol-3-yl)phenyl)amino)-7H-pyrrolo[2,3-d] pyrimidine-5-carbonitrile] | – | – | – | – | < 100 nM | – | – | – | – | < 50 nM | < 100 nM
N#Cc1c[nH]c2nc(Nc3ccc(N4CCCC4=O)c4c3OCCO4)nc(NC3CCCCCC3)c12 [Example 151, 4-(cycloheptylamino)-2-((8-(2-oxopyrrolidin-1-yl)-2,3-dihydrobenzo[b][1,4]dioxin-5-yl)amino)-7H-pyrrolo[2,3-d] pyrimidine-5-carbonitrile] | – | – | – | – | < 100 nM | – | – | – | – | < 50 nM | < 100 nM
COc1cc(N2CCCS2(=O)=O)ccc1Nc1nc(NC2CCCC2)c2c(C#N)c[nH]c2n1 [Example 157, 4-(cyclopentylamino)-2-((4-(1,1-dioxidoisothiazolidin-2-yl)-2-methoxyphenyl)amino)-7H-pyrrolo[2,3-d] pyrimidine-5-carbonitrile] | – | – | – | – | < 100 nM | – | – | – | – | < 50 nM | < 100 nM
Cn1nccc1-c1ccc(Nc2nc(NC3CCCC3)c3c(C(F)(F)F)c[nH]c3n2)c2c1OCCO2 [Example 133, N^4-cyclopentyl-N^2-(8-(1-methyl-1H-pyrazol-5-yl)-2,3-dihydrobenzo[b][1,4]dioxin-5-yl)-5-(trifluoromethyl)-7H-pyrrolo[2,3-d] pyrimidine-2,4-diamine] | – | – | – | – | 100 to 1000 nM | – | – | – | – | 200 to 1000 nM | 100 to 1000 nM
COc1cc(N2CCCC2=O)ccc1Nc1cc(NC2CCCCC2)c2c(C(F)(F)F)c[nH]c2n1 [Example 62, 1-(4-((4-(cyclohexylamino)-3-(trifluoromethyl)-1H-pyrrolo[2,3-b]pyridin-6-yl)amino)-3-methoxyphenyl) pyrrolidin-2-one] | – | – | – | – | – | 100 to 1000 nM | 100 to 1000 nM | 100 to 1000 nM | 100 to 1000 nM | – | –
COc1cc(N2CCCC2=O)ccc1Nc1cc(NC2CCCC2)c2c(C#N)c[nH]c2n1 [Example 63, 4-(cyclopentylamino)-6-((2-methoxy-4-(2-oxopyrrolidin-1-yl)phenyl)amino)-1H-pyrrolo[2,3-b] pyridine-3-carbonitrile] | – | – | – | – | 100 to 1000 nM | < 100 nM | < 100 nM | < 100 nM | < 100 nM | < 50 nM | –
COc1cc(N2CCCC2=O)ccc1Nc1nc(NC2CCCC2)c2cc[nH]c2n1 [Example 47, 1-(4-((4-(cyclopentylamino)-7H-pyrrolo[2,3-d]pyrimidin-2-yl)amino)-3-methoxyphenyl) pyrrolidin-2-one] | – | – | – | – | – | < 100 nM | < 100 nM | < 100 nM | < 100 nM | – | –
